# According to patent publication US8575163B2, “Pyrrolopyridinylpyrimidin-2-ylamine derivatives” (Merck Patent GmbH, priority 2009, dated 2013):
# Like-named read-outs stand apart in the source and are kept apart here.
# What was measured:
# [1] = target: T1, PDK1 (Homo sapiens, UniProt O15530); test: Test for the inhibition of PDK1 (flashplate, 33P-ATP); format: biochemical; settings: His6-PDK1 3.4 nM, 4 μM ATP, 30° C., 60 min
# T1 construct: His6 (N)
# T1 sequence (O15530 51-556 limits assumed): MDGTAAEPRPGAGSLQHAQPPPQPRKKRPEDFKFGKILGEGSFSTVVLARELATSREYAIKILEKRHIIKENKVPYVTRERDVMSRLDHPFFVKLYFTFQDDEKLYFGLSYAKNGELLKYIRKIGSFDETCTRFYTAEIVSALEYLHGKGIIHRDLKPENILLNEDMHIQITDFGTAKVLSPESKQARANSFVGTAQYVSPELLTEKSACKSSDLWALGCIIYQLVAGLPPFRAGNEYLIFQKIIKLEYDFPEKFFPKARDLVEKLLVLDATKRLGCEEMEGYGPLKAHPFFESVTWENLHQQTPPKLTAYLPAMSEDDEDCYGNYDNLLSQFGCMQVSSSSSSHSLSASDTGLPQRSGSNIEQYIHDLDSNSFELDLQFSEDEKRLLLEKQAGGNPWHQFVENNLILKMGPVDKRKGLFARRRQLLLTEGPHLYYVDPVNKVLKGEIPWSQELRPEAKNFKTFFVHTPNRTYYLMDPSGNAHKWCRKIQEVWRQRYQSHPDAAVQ
# In short: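 His6-PDK1(1-50) (3.4 nM) and a biotinylated peptide substrate (400 nM) were incubated 60 min at 30° C with 4 μM ATP containing ^33P-ATP and test compound. Incorporated radioactivity was counted after subtracting a 100 nM staurosporine blank and expressed as % of control; IC50 derived from these.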
# [2] = test system: PDK1 kinase activity (phospho-T308-PKB) in PC3 cells; test: Cellular testing of PDK1 kinase inhibitors in PC3 cells (Luminex, phospho-T308-PKB); format: cell-based; settings: 30 min incubation, serum-free, read-out: IC50 PC3 cells [P-PKB T308]
# Description: Method for the Cellular Testing of PDK1 Kinase Inhibitors in PC3 Cells.
# The cellular assay for the determination of the PDK1 kinase activity is carried out as a Luminex assay in the 96-well format. PC3 cells are shown at 20,000 cells per well in 100 μl of medium (45% of […]/45% of Ham's F12/10% of FCS) and incubated on the following day for 30 min with a serial dilution of the test substance (7 concentrations) under serum-free conditions. The cells are subsequently lysed using 90 μl of lysis buffer (20 mM tris/HCl pH 8.0, 150 mM NaCl, 1% of NP40, 10% of glycerol, 1% of phosphatase inhibitor I, 1% of phosphatase inhibitor II, 0.1% of protease inhibitor cocktail III, 0.01% of benzonase) per well, and the lysates are separated off from insoluble cell constituents by means of centrifugation through a 96-well filter plate (0.65 μm). The lysates are incubated overnight at 4° C. with shaking with Luminex beads to which an anti-total PKB antibody is coupled. The detection is carried out on the following day by addition of a phospho-T308-PKB antibody and a species-specific peroxidase-labelled secondary antibody. The detection of phospho-T308-PKB is carried out by measurement in a Luminex100 instrument by determination of 100 events per cavity in a measurement time of 60 sec. As pharmacological blank, the signals obtained from cells which have been treated with 10 μM staurosporin are subtracted from all other batches. The control value used for maximum phosphorylation of PKB on T308 are the signals from cells which have only been treated with the solvent (0.3% of DMSO). The values of the batches treated with test substance are calculated therefrom as percentage of control, and IC50 values are determined by means of RS1.
SMILES,IC50 [1],"IC50 ([2]; Homo sapiens, PC-3, 0.5 h)",IC50 [2]
"COCOC(C)(c1cc(-c2c[nH]c3ncc(-c4cnn(C)c4)cc23)nc(N)n1)c1ccccc1F (stereo not shown) [A119, 4-[1-(2-fluorophenyl)-1-methoxymethoxyethyl]-6-[5-(1-methyl-1H-pyrazol-4-yl)-1H-pyrrolo[2,3-b]pyridin-3-yl]pyrimidin-2-ylamine]",36 nM,470 nM,
"CCC[C@@](O)(c1ccncc1)c1cc(-c2c[nH]c3ncc(-c4cnn(C)c4)cc23)nc(N)n1 (single isomer, unassigned) [A134]",4.1 nM,280 nM,
"COCO[C@@](C)(c1ccncc1)c1cc(-c2c[nH]c3ncc(Br)cc23)nc(N)n1 (single isomer, unassigned) [A140]",220 nM,8900 nM,
"CC[C@@](O)(c1ccc(F)cc1)c1cc(-c2c[nH]c3ncc(-c4cnn(C)c4)cc23)nc(N)n1 (single isomer, unassigned) [A121]",48 nM,18 nM,
"CCCC(OCOC)(c1cccc(F)c1)c1cc(-c2c[nH]c3ncc(-c4cnn(C)c4)cc23)nc(N)n1 (stereo not shown) [A117, 4-[1-(3-fluorophenyl)-1-methoxymethoxybutyl]-6-[5-(1-methyl-1H-pyrazol-4-yl)-1H-pyrrolo[2,3-b]pyridin-3-yl]pyrimidin-2-ylamine]",450 nM,980 nM,
"Cn1cc(-c2cnc3[nH]cc(-c4cc(C(C)(O)c5ccncc5)nc(N)n4)c3c2)cn1 (single isomer, unassigned) [A41, 1-{2-amino-6-[5-(1-methyl-1H-pyrazol-4-yl)-1H-pyrrolo[2,3-b]pyridin-3-yl]-pyrimidin-4-yl}-1-pyridin-4-ylethanol]",3.4 nM,980 nM,
"CC(C)[C@@](O)(c1ccccc1)c1cc(-c2c[nH]c3ncc(-c4cnn(C)c4)cc23)nc(N)n1 (single isomer, unassigned) [A127]",28 nM,11 nM,
"Cn1cc(-c2cnc3[nH]cc(-c4cc([C@@](O)(c5ccccc5)C(F)(F)F)nc(N)n4)c3c2)cn1 (single isomer, unassigned) [A123]",78 nM,250 nM,
"Cn1cc(-c2cnc3[nH]cc(-c4cc(C(C)(O)c5ccccc5F)nc(N)n4)c3c2)cn1 (single isomer, unassigned) [A104, 1-{2-amino-6-[5-(1-methyl-1H-pyrazol-4-yl)-1H-pyrrolo[2,3-b]pyridin-3-yl]-pyrimidin-4-yl}-1-(2-fluorophenyl)ethanol]",16 nM,,41 nM
"CCC[C@@](O)(c1cc(-c2c[nH]c3ncc(-c4cnn(C)c4)cc23)nc(N)n1)c1ccccc1F (single isomer, unassigned) [A129]",16 nM,7 nM,
"COCOC(C)(c1cc(-c2c[nH]c3ncc(-c4cnn(C)c4)cc23)nc(N)n1)c1ccccc1C (stereo not shown) [A18, 4-(1-methoxymethoxy-1-o-tolylethyl)-6-[5-(1-methyl-1H-pyrazol-4-yl)-1H-pyrrolo[2,3-b]pyridin-3-yl]pyrimidin-2-ylamine]",32 nM,69 nM,
"Cn1cc(-c2cnc3[nH]cc(-c4cc(C(C)(O)c5cccc(F)c5)nc(N)n4)c3c2F)cn1 (stereo not shown) [A106, 1-{2-amino-6-[4-fluoro-5-(1-methyl-1H-pyrazol-4-yl)-1H-pyrrolo-[2,3-b]pyridin-3-yl]pyrimidin-4-yl}-1-(3-fluorophenyl)ethanol]",26 nM,5.1 nM,
"CCCC(O)(c1cc(-c2c[nH]c3ncc(-c4cnn(C)c4)cc23)nc(N)n1)c1ccccc1F (stereo not shown) [A118, 1-{2-amino-6-[5-(1-methyl-1H-pyrazol-4-yl)-1H-pyrrolo[2,3-b]pyridin-3-yl]-pyrimidin-4-yl}-1-(2-fluorophenyl)butan-1-ol]",29 nM,240 nM,
"CC[C@@](O)(c1cc(-c2c[nH]c3ncc(-c4cnn(C)c4)cc23)nc(N)n1)c1cccc(F)c1F (single isomer, unassigned) [A126]",66 nM,2 nM,
"Cn1cc(-c2cnc3[nH]cc(-c4cc([C@@](C)(O)c5cccc(Cl)c5F)nc(N)n4)c3c2)cn1 (single isomer, unassigned) [A137]",28 nM,14 nM,
"COc1ccc(C(C)(O)c2cc(-c3c[nH]c4ncc(-c5cnn(C)c5)cc34)nc(N)n2)cn1 (stereo not shown) [A112, 1-{2-amino-6-[5-(1-methyl-1H-pyrazol-4-yl)-1H-pyrrolo[2,3-b]pyridin-3-yl]-pyrimidin-4-yl}-1-(6-methoxypyridin-3-yl)ethanol]",120 nM,1300 nM,
"CC[C@](O)(c1cc(-c2c[nH]c3ncc(-c4cnn(C)c4)cc23)nc(N)n1)c1ccncc1F (single isomer, unassigned) [A131]",3.8 nM,11 nM,
"CC[C@@](O)(c1cc(-c2c[nH]c3ncc(-c4cnn(C)c4)cc23)nc(N)n1)c1ccncc1F (single isomer, unassigned) [A132]",32 nM,140 nM,
"CC[C@](O)(c1ccccc1)c1cc(-c2c[nH]c3ncc(-c4cnn(CC(=O)N5CCCCC5)c4)cc23)nc(N)n1 (single isomer, unassigned) [A135]",6.9 nM,34 nM,
"CCC[C@](O)(c1ccncc1)c1cc(-c2c[nH]c3ncc(-c4cnn(C)c4)cc23)nc(N)n1 (single isomer, unassigned) [A133]",48 nM,1900 nM,
"CC(C)n1cc(-c2cnc3[nH]cc(-c4cc(C(C)(O)c5cccc(F)c5F)nc(N)n4)c3c2)cn1 (stereo not shown) [A114, 1-{2-amino-6-[5-(1-isopropyl-1H-pyrazol-4-yl)-1H-pyrrolo[2,3-b]pyridin-3-yl]-pyrimidin-4-yl}-1-(2,3-difluorophenyl)ethanol]",39 nM,14 nM,
"CCC[C@](O)(c1cc(-c2c[nH]c3ncc(-c4cnn(C)c4)cc23)nc(N)n1)c1ccccc1F (single isomer, unassigned) [A130]",71 nM,18 nM,
"COCOC(C)(c1ccccc1)c1cc(-c2c[nH]c3ncc(-c4cnn(C)c4)cc23)nc(N)n1 (stereo not shown) [A17, 4-(1-methoxymethoxy-1-phenylethyl)-6-[5-(1-methyl-1H-pyrazol-4-yl)-1H-pyrrolo[2,3-b]pyridin-3-yl]pyrimidin-2-ylamine]",58 nM,,
"CCCC(C)(O)c1cc(-c2c[nH]c3ncc(-c4cnn(C(C)C)c4)cc23)nc(N)n1 (stereo not shown) [A87, 2-{2-amino-6-[5-(1-isopropyl-1H-pyrazol-4-yl)-1H-pyrrolo[2,3-b]pyridin-3-yl]-pyrimidin-4-yl}pentan-2-ol]",16 nM,,
"CC(O)(c1ccccc1)c1cc(-c2c[nH]c3ncc(-c4cnn(CCO)c4)cc23)nc(N)n1 (single isomer, unassigned) [A96, 1-(2-amino-6-{5-[1-(2-hydroxyethyl)-1H-pyrazol-4-yl]-1H-pyrrolo[2,3-b]-pyridin-3-yl}pyrimidin-4-yl)-1-phenylethanol]",18 nM,,
"CC(O)(c1ccccc1)c1cc(-c2c[nH]c3ncc(-c4cnn(C(F)F)c4)cc23)nc(N)n1 (stereo not shown) [A39, 1-{2-amino-6-[5-(1-difluoromethyl-1H-pyrazol-4-yl)-1H-pyrrolo[2,3-b]pyridin-3-yl]pyrimidin-4-yl}-1-phenylethanol]",91 nM,,
"CNc1nc(-c2c[nH]c3ncc(-c4cnn(CCO)c4)cc23)cc(C(C)(O)c2ccccc2)n1 (stereo not shown) [A95, 1-(6-{5-[1-(2-hydroxyethyl)-1H-pyrazol-4-yl]-1H-pyrrolo[2,3-b]pyridin-3-yl}-2-methylaminopyrimidin-4-yl)-1-phenylethanol]",18 nM,,
